Tests used:
[1] = Hydrolytic stability in mouse liver microsomes assessed as esterase-mediated compound hydrolysis by measuring residual substrate activity incubated for 30 mins by LC-HRMS analysis; assay type: ADME, Microsome; conditions: for Stability: microsomes, 0.5 h
Pseudomonas aeruginosa = assay: Antibacterial activity against Pseudomonas aeruginosa ATCC 9027 assessed inhibition zone at 1 mg/ml preincubated at room temperature for 1 hr and measured after 24 hrs by agar well-diffusion method; assay type: functional; conditions: time 25.0 hrs

Molecule | Stability [1] | further results
CC(C)(C)NC(=O)COC(=O)c1ccccc1-c1ccccc1 |  | remaining at 0.5 h ([1]; liver microsomes, read-out: Stability): 81%
COC(=O)c1ccccc1 [METHYL BENZOATE] | Unstable | 
COC(=O)c1c(C)cccc1C | Stable | 
GENTAMICIN |  | inhibition zone (IZ) (Pseudomonas aeruginosa): 22.3 mm

Reference: ChEMBL document CHEMBL5236637, “Expanding the Chemical Space of Drug-like Passerini Compounds: Can α-Acyloxy Carboxamides Be Considered Hard Drugs?” (ACS Med Chem Lett, 2022)
